Source: US7345065B2, “Methods and compositions for alleviating pain” (Allergan, Inc., priority 2002, dated 2008)

Assays:
Bennett model rats = assay: Bennett partial sciatic nerve ligation model, cold allodynia; format: in vivo, rat; conditions: osmotic minipump 0.1 mg/hr/kg for four days; during treatment and more than three weeks following pump removal
Procedure: The α-2B/C selective agonist Compound 8 was tested in a second rat nerve injury model of neuropathic pain, the Bennett partial sciatic nerve ligation model. This rat model produces a peripheral mononeuropathy with disorders of pain sensation similar to those seen in man (Bennett and Xie, Pain 33:87-107 (1988)). In the Bennett model, nerve injury is created by loosely tying constrictive ligatures around the sciatic nerve, causing degeneration of nerve distal to the constriction. Allodynia and hyperalgesia are produced by the constriction injury in addition to spontaneous pain (Bennett and Xie, supra, 1988). In particular, cold allodynia, the sensation of pain from cold stimuli, is one manifestation of altered pain sensation: Bennett model animals frequently lift the paw of the surgical limb off the cold surface, in contrast to control animals.
Bennett surgeries of about 20 minute duration were performed as follows. […]
Chronic drug administration was achieved via an osmotic minipump, which was implanted subcutaneously on the back of the rat one week after the Bennett surgery as described above. […] To assess response to thermal stimuli, rats were placed under a clear plastic chamber (18 cm×29 cm×12.5 cm) on a chilled (0-4° C.) metal floor, which is not noxious to a normal animal, and the time that the surgical paw was raised off of the cold floor recorded over a 5 minute period. […]

[1] = test system: Sprague Dawley rats, normal and sensitized; assay: Rat model of irritable bowel syndrome (chronic visceral hypersensitivity), EMG response to colorectal distension; format: in vivo
Source text: A well-accepted model of chronic visceral hypersensitivity is described in Al-Chaer et al., Gastroenterology 119:1276-85 (2000). In brief, colons of neonatal male Sprague Dawley rats were sensitized by repeated inflation of a colonic balloon on postnatal days 8 to 21, with colonic balloons inflated to pressures ranging from 20-80 mm Hg. Three months later, the abdominal withdrawal reflex (AWR) response of the adult rats to graded colorectal distension (CRD) was quantified by electromyography (EMG) recording from the abdominal wall muscle. […] Each level of CRD was administered for 20 seconds every four minutes and repeated for a total of five times.
Groups of 8-10 normal and sensitized adult Sprague Dawley rats (approximately 3 months old) were implanted with subcutaneous minipumps to deliver either 50% DMSO or Compound 8 in 50% DMSO at a dose of 100 ug/kg/hr over a period of 7 days. The abdominal withdrawal reflex to a graded series of colorectal distensions (20, 40, 60, 80 mm Hg) was measured by abdominal EMG recording prior to pump implantation, on days 2 and 5 of the subcutaneous infusion, and 2 days, 1 week, 2 weeks, and 4 weeks after the pumps were removed.

[2] = Plasma concentration by LC-MS/MS during and after minipump dosing; format: in vivo, rat; conditions: 0.1 mg/kg/hour minipump for seven days
Procedure: To determine whether the persistent reversal of allodynia was due to the continued presence of drug in the animals, rats were treated for seven days using a subcutaneous osmotic minipump with 0.1 mg/kg/hour Compound 8. Plasma concentrations of Compound 8 were sampled on days 3, 6, 8, 10 and 14 following pump insertion and determined by liquid chromatography-mass spectrometry/mass spectrometry (LC-MS/MS).

[3] = test system: α-2B heterozygous (−/+) and homozygous (−/−) knockout mice; assay: Sulprostone sensitized pain (allodynia), α-2B knockout mice; format: in vivo, mouse; conditions: intraperitoneal; heterozygous and homozygous α-2B knockout; clonidine 500 ug/kg, Compound 3 100 ug/kg
Chung model rats = assay: Chung rat nerve ligation model, tactile allodynia reversal (Von Frey); format: in vivo
Procedure: The Chung rat nerve ligation model is a well accepted model of peripheral neuropathic pain. In the Chung model, partial ligation of left spinal nerves L-5 and L-6 produces a long-lasting hypersensitivity to light touch on the affected left foot. The hypersensitivity is similar to pain experienced by humans with the neuropathic condition of causalgia (Kim and Chung, Pain 50:355-363 (1992)).
Chung rat surgeries of about 20 minutes duration were performed essentially as follows. Male Sprague-Dawley rats weighing 100 to 120 grams were anesthetized with isofluorane. After shaving and preparing the surgical site with betadine, an incision was made from thoracic vertebra XIII down toward the sacrum, and muscle separated from spinal vertebra (left side) at the L4-S2 levels. The L6 vertebra were located, and the transverse process carefully removed with a small rongeur to visually identify the L4-L6 spinal nerves. L5 and L6 spinal nerves were isolated and tightly ligated with 6-0 silk thread; the wound was sutured after complete hemostasis was confirmed. A small amount of antibiotic ointment was applied to the incised area before transferring the animals to a plastic recovery cage under a regulated heat-temperature lamp. Animals were not treated with any topical or local anesthetics post-operatively.
Assessment of pain in Chung model rats was performed by applying a light tactile stimulus (Von Frey hair) to the affected surgical paw as follows. A 50% pain threshold was established by applying the Von Frey hair in an up-and-down manner to the plantar surface of the surgical paw with just enough force to bend them. A positive response was recorded if the paw was withdrawn sharply. The 50% paw withdrawal threshold was determined using the method of Dixon et al., Ann. Rev. Pharmacol. Toxicol. 20:441-462 (1980). The post-drug threshold was compared to the pre-drug threshold, and the precent reversal of tactile sensitivity calculated based on a normal threshold of 15.1 grams. The results were expressed as % allodynia reversal, reflecting the percentage reversal of pain threshold relative to a normal rat (100%).
Chung surgeries were performed, and pain assessed as described above. Drugs administered via osmotic minipump were delivered as follows. ALZET (Cupertino, Calif.) minipumps (Model #1007D) were implanted subcutaneously on the rats' back between the shoulder blades. Pumps were filled with test solution prior to surgery, which was performed with aseptic procedures and sterilized surgical instruments. After anesthetization with isoflorane and midline incision between the shoulder blades through the muscle, a subcutaneous pocket was exposed. The minipump was inserted into the exposed pocket, before stapling the wounds closed and allowing animals to recover under a warming light.
ALZET osmotic minipumps (model 1007D) hold a total volume of 100 μl and delivered drug at the set rat of 0.5 μl per hour the indicated time period. Drugs were administered at the indicated rate, typically 100 μg/hr/kg, dissolved in 50% DMSO, with the concentration of drug in the pump varied depending on animal weight. […]

α-2A = target: T1, α-2A (Homo sapiens, UniProt P08913); assay: Ki at α-2A; format: binding
T1 sequence (P08913 1-465): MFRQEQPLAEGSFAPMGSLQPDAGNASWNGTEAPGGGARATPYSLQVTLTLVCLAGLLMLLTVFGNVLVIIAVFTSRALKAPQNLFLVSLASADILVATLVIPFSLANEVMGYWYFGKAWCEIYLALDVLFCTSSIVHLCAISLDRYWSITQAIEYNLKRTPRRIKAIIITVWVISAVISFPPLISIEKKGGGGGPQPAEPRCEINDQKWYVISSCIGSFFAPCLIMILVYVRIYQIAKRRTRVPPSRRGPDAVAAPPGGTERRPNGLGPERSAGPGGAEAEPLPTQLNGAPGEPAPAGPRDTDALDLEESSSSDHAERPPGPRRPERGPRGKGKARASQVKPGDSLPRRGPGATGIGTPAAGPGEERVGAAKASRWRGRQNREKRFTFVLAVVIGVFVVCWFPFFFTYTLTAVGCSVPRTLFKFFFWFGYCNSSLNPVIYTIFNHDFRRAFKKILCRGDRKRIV

rat α-2B (RNG gene) = target: T2, rat α-2B (RNG gene) (Rattus norvegicus, UniProt P19328); assay: RSAT assay, α-2B receptor; format: cell-based
T2 construct: expressed in transfected cells; host or cells: NIH-3T3
T2 sequence (P19328 1-453): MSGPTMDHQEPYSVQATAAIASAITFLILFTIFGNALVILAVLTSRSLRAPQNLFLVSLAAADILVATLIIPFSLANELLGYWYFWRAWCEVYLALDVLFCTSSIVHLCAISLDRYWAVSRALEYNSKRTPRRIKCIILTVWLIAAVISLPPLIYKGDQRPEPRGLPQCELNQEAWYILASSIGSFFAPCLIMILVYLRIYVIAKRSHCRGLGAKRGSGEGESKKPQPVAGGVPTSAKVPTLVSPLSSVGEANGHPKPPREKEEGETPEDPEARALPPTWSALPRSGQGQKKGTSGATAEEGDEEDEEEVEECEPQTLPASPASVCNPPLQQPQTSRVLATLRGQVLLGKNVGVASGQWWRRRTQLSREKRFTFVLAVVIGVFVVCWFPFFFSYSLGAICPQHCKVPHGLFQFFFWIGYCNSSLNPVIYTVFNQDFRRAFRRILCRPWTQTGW
Source text: Agonist and antagonist activity, including selectivity and specificity, can be characterized using any of a variety of routine assays, including, without limitation, Receptor Selection and Amplification Technology (RSAT) assays (Messier et al., Pharmacol. Toxicol. 76:308-11 (1995); Conklin et al., Nature 363:274-6 (1993)); cyclic AMP assays (Shimizu et al., J. Neurochem. 16:1609-1619 (1969)); and cytosensor microphysiometry assays (Neve et al., J. Biol. Chem. 267:25748-25753 (1992)). Such assays generally are performed using cells that naturally express only a single α-adrenergic receptor subtype, or using transfected cells expressing a single recombinant α-adrenergic receptor subtype. The adrenergic receptor can be a human receptor or homolog thereof having a similar pharmacology. As disclosed herein, RSAT assays were performed using cells transiently transfected with human α-2A (c10 gene); rat α-2B (RNG gene); human α-2C (c4 gene); bovine α-1A; hamster α-1B; and rat α-1D.
The RSAT assay measures receptor-mediated loss of contact inhibition resulting in selective proliferation of receptor-containing cells in a mixed population of confluent cells. The increase in cell number is assessed with an appropriate detectable marker gene such as β-galactosidase, if desired, in a high throughput or ultra high throughput assay format. Receptors that activate the G protein, Gq, elicit the proliferative response. α-adrenergic receptors, which normally couple to Gi, activate the RSAT response when coexpressed with a hybrid Gq protein containing a Gi receptor recognition domain, designated Gq/i5.
As an example, an RSAT assay can be performed essentially as follows. NIH-3T3 cells are plated at a density of 2×10^6 cells in 15 cm dishes and maintained in Dulbecco's modified Eagle's medium supplemented with 10% calf serum. One day later, cells are cotransfected by calcium phosphate precipitation with mammalian expression plasmids encoding p-SV-β-galactosidase (5-10 μg), receptor (1-2 μg) and G protein (1-2 μg). Carrier DNA, for example 40 μg salmon sperm DNA, also can be included to increase transfection efficiency. Fresh media is added on the following day; one to two days later, cells are harvested and frozen in 50 assay aliquots. Transfected cells are thawed, and 100 μl of cells added to 100 μl aliquots of compound to be tested, with various concentrations assayed in triplicate, for example, in 96-well plates. Incubation continues for 72 to 96 hours at 37°. After washing with phosphate-buffered saline, β-galactosidase activity is determined by adding 200 μl of chromogenic substrate (3.5 mM O-nitrophenyl-β-D-galactopyranoside/0.5% NP-40 in phosphate buffered saline), incubating overnight at 30°, and measuring optical density at 420 nm. The absorbancy is a measure of enzyme activity, which depends on cell number and reflects receptor-mediated cell proliferation. The EC50 and maximal effect (efficacy) of each drug at each receptor is determined.

[4] = subcutaneous osmotic minipump 0.1 mg/kg/hour, seven days

plasma drug level, day 10 ([2]; day 10 following pump insertion)	plasma drug level, day 14 ([2]; day 14 following pump insertion)	Compound	cold allodynia (Bennett model rats)	EMG response, non-sensitized control rats ([1]; 100 ug/kg/hr subcutaneous minipump, 7 days)	pain (EMG intensity) in sensitized rats after treatment ([1]; 100 ug/kg/hr subcutaneous minipump, 7 days, CRD 20-80 mm Hg)	increased EMG response in sensitized rats ([1]; 100 ug/kg/hr subcutaneous minipump, 7 days, during and following treatment)	return of colorectal allodynia and hyperalgesia ([1]; 4 weeks following cessation of drug treatment)	analgesic effect in α-2B knockout mice [3]	allodynia during follow-up testing (Chung model rats; after oral 0.3 mg/kg three times a day for three days)	allodynia on the morning of day 4 (Chung model rats; oral 0.3 mg/kg three times a day for three days)	allodynia prior to the first dose of the morning, days 2 and 3 (Chung model rats; oral 0.3 mg/kg three times a day for three days, about 14 hours after the last dose)	reversal of allodynia (Chung model rats; oral gavage, three doses of 0.3 mg/kg per day for three consecutive days)	allodynia alleviated during the period of drug treatment (Chung model rats; [4])	persistence of analgesic effects after treatment (Chung model rats; [4])	Ki (α-2A)	efficacy at α-2B relative to brimonidine (rat α-2B (RNG gene))
minimal drug levels were detected	no drug remained in the plasma	OCCNC(=S)NCc1cccc(Cl)c1F [Compound 8]	completely alleviated	did not change significantly from pre-treatment levels	0 to 1.5	completely alleviated	did not return during the time period tested	failed to show analgesic activity	allodynia did not increase during a more than three week period of follow-up testing	allodynia was dramatically reduced	complete tactile allodynia	70-80%	90-100%	continued for over a month after treatment was concluded		
		c1nc(CC2CCc3sccc3C2)c[nH]1 (stereo not shown) [Compound 13]													~0.08 nM	about 40%
